Reference: patent publication US20120195929A1, “COMPOUNDS THAT MODULATE AUTOIMMUNITY AND METHODS OF USING THE SAME” (priority 2009, published 2012)
“Also recorded” adds a separate entry of the source.

Key:
[1] = tested on: Balb/c splenocytes; test: IL-10 ELISPOT, Balb/c splenocytes (I-A^d); assay type: cell-based, Balb/c mice
Text: (§1) Balb/c mice have I-A^d as their class II antigen presenting molecule. I-A^d is structurally similar to I-A^g7 of the NOD, with both strains having identical I-A alpha chains (17 amino acid differences in the I-A beta chains). C57BL/6 mice have I-A^b as their class II antigen presenting molecule. Both strains lack the basic pocket 9 in the peptide binding groove.

[2] = tested on: T cell hybridoma 8-1.1α1; test: T cell hybridoma 8-1.1α1 response to B:9-23 peptide presented by I-A^g7; assay type: cell-based, mouse
Text: B:9-23 peptide and small molecule binding to panel a) T cell hybridoma 8-1.1α1, panel b) hybridoma BDC 12-4.1, and panel c) hybridoma BDC 12-4.4. […] Dotted line is at the stimulation index of the B:9-23 peptide. TT=tetanus toxin (negative control peptide).
TT=tetanus toxin (negative control peptide). B:19(A)=substitution of the native cysteine for alanine at position 19 in B:9-23. […] Results are given as a stimulation index (SI) from triplicate cultures+s.e.m. The data are representative of at least three independent experiments. […] The figure is representative of three independent experiments.
The top 40 scoring compounds (shown in Table 1) were screened for their ability to alter anti-B:9-23 T cell responses to three different T cell hybridomas, all with the dominant conserved Vα5D-4 TCR element but different CDR3α, Jα, and TCRβ chains. […] The same assays evaluating hybridoma response were performed using 40 random compounds from the NCI/DTP repository.

[3] = tested on: NOD mice; test: Diabetes prevention study in NOD mice; settings: 80 mg/kg/day i.p. 5 days per week from 4 to 21 weeks of age; p<0.001 vs PBS controls
[4] = tested on: I-A^g7; test: Direct binding of biotinylated insulin B:9-23 peptide to purified I-A^g7; design: species or system mouse; settings: 500 nM; increasing biotinylated B:9-23; 2 h and 24 h
[5] = tested on: NOD splenocytes; test: IL-10 ELISPOT, in vitro culture of NOD splenocytes; settings: stimulated with glyphosine and B:9-23 peptide
[6] = tested on: C57BL/6 splenocytes; test: IL-10 ELISPOT, C57BL/6 splenocytes (I-A^b); assay type: cell-based, C57BL/6 mice; settings: C57BL/6, I-A^b
Text: as §1

[7] = tested on: I-A^g7 congenic splenocytes; test: IL-10 ELISPOT, splenocytes from C57BL/6 mice congenic for I-A^g7; assay type: cell-based; settings: C57BL/6 congenic for I-A^g7
Text: as §1

[8] = tested on: NOD mice splenocytes; test: Ex vivo ELISPOT of splenocytes from NOD mice treated in vivo; settings: 80 mg/kg/day intraperitoneal for 5 days, 10 week old female NOD mice; vs PBS
[9] = tested on: BDC 12-4.1 splenocytes; test: ELISPOT and supernatant cytokines, transgenic BDC 12-4.1 Rag−/− mouse splenocytes; assay type: cell-based
Protocol: Number of spots for each well is shown in the upper left hand corner.
The in vitro response of a monoclonal T cell population targeted to the B:9-23 peptide (rather than hybridomas) was evaluated by enzyme-linked immunospot (ELISPOT). […] Stimulation without the addition of B:9-23 peptide was unexpected and could be due to in vivo insulin peptide-MHC complexes present in the spleen. As shown in panel d of FIG. 3, both IL-10 (FIG. 3c) and IFN-γ (FIG. 3d) were quantified in the supernatant of stimulated splenocytes.

[10] = tested on: BDC 2.5 T cell hybridoma; test: BDC 2.5 T cell hybridoma response to chromogranin peptide mimotope presented by I-A^g7; assay type: cell-based, mouse; settings: chromogranin peptide mimotope presented by I-A^g7 (FIG. 2d)

Compound: O=C(O)CN(CP(=O)(O)O)CP(=O)(O)O [Glyphosine, N,N-bis(phosphonomethyl)glycine]
- IL-10 ELISPOT response to compound plus B:9-23 peptide [1]: failed to respond
- TCR stimulation with other modified B:9-23 insulin peptides ([2]; FIG. 2c): enhanced TCR stimulation
- EC50 ([2]; Mus musculus, T-cell, with B:9-23 peptide (FIG. 2b), read-out: EC50 concentration, enhancement of TCR stimulation): 70.6 nM
- maximal stimulatory effect, fold greater than peptide alone ([2]; at 500 nM): approximately 2.5 fold
- concentration of maximal stimulatory effect ([2]; with B:9-23 peptide): 500 nM
- lowest concentration at which an effect was seen ([2]; with B:9-23 peptide (FIG. 2b)): 10 nM
- TCR stimulation, dependence on peptide ([2]; with vs without B:9-23 peptide (FIG. 2b)): modulated TCR stimulation only when peptide is present
- development of diabetes [3]: Prevention of diabetes occurred as long as therapy was administered
- B:9-23 peptide binding to empty I-A^g7 [4]: directly enhance B:9-23 peptide binding
- IL-10 producing cells (ELISPOT) [5]: three- to four-fold increase
- IL-10 ELISPOT response to compound plus B:9-23 peptide [6]: failed to respond
- IL-10 ELISPOT response to compound plus B:9-23 peptide [7]: responded
- ex vivo IFN-γ ELISPOT [8]: no change in IFN-γ
- ex vivo IL-10 ELISPOT [8]: upregulation of IL-10
- IFN-γ positive cells (ELISPOT) ([9]; in vitro, 500 nM): much smaller increase in IFN-γ positive cells
- IL-10 positive cells (ELISPOT) ([9]; in vitro, 500 nM, with and without B:9-23 peptide): dramatically enhances IL-10 positive cells
- IFN-γ levels in supernatant ([9]; with B:9-23 peptide, compared to peptide alone): not increased; also recorded: decreases IFN-γ levels
- peptide stimulation of BDC 2.5 hybridoma [10]: did not enhance peptide stimulation
